Laboratory results published in patent publication US20230125249A1 (FIRMENICH SA, priority 2017, published 2023).
Where two headings read alike, the source gives them in different places. One block for each compound: values may come before it.

How the values were obtained:
[1] = target: T1, OR5AN1 olfactory receptor (Homo sapiens, UniProt Q8NGI8); assay: MUSCENONE®/musk dose-response on OR5AN1 in presence and absence of putative modulator (EC50 shift, span); assay type: cell-based; conditions: FIG. 6; MUSCENONE® dose response in the presence of 250 μM compound
T1 construct: expressed in transfected cells
T1 sequence (Q8NGI8 1-311): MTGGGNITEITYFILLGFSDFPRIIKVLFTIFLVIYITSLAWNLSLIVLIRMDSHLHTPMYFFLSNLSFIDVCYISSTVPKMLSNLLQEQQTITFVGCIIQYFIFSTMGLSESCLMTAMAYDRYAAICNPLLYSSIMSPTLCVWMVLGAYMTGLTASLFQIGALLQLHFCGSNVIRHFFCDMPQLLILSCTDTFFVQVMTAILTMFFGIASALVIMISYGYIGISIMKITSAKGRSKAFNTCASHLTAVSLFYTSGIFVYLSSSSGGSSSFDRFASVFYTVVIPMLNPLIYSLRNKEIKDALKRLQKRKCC

[2] = target: T1, OR5AN1 olfactory receptor; assay: Single point binary mixture screen (MUSCENONE® + test compound) on a cell line expressing OR5AN1; assay type: cell-based; conditions: MUSCENONE® 10 μM + test compound 500 μM, compared to MUSCENONE® alone
Description: 481 binary mixtures were created by mixing a MUSCENONE® stock solution with a stock solution of each test compound to a final concentration 10 and 500 μM, respectively. Stock solutions were made of compounds dissolved in pure DMSO. Each mixture was presented to a cell line expressing the OR5AN1 olfactory receptor. The final concentration of DMSO in each binary mixture was 0.17%, and had no visible effect on the cells
The resulting activation was then measured and compared to MUSCENONE® alone (defining the baseline of the enhancement assay). The quality of the HTS process was determined and the window variability and signal reliability were assessed by calculating the Z′ value of each plate. Twenty hits were obtained, five of which were macrocyclic ketone and nitromusk OR5AN1 olfactory receptor agonists (hit n° 1, 2, 3, 5 and 9). These OR5AN1 olfactory receptor agonists further confirmed that the dynamic range of the assay window was sufficient (as the responses recorded were well above baseline) and thus likely sensitive enough to detect even low levels of putative enhancement.

[3] = target: T1, OR5AN1 olfactory receptor; assay: MUSCENONE®/musk dose-response on OR5AN1 in presence and absence of putative modulator (EC50 shift, span); assay type: cell-based; conditions: MUSCENONE® dose response in the presence of 250 μM compound
Description: Next, two parallel dose-response experiments to confirm the true enhancement properties of the potential candidates were performed. First, a dose-response of each individual candidate was performed to determine if it was an agonist by itself.
The resulting enhancement was quantified by means of EC50-fold shift (potency increase) and the efficacy span ratio (efficacy increase).
The EC50-fold shift was obtained by dividing the EC50 of MUSCENONE® +compound by the reference EC50 MUSCENONE® alone. The span ratio was obtained by dividing the span of MUSCENONE®+compound by the reference span of MUSCENONE® alone.

[4] = target: T1, OR5AN1 olfactory receptor; assay: Response of the OR5AN1 olfactory receptor to musk compounds (HTRF); assay type: cell-based
[5] = target: T1, OR5AN1 olfactory receptor; assay: Allosteric EC50 shift analysis: MUSCENONE® dose response with serial concentrations of enhancer; assay type: cell-based; conditions: same method as for TDA
Description: The level of enhancement of the OR5AN1 olfactory receptor activation was evaluated at distinct concentrations of the enhancer. […] The curves were obtained by applying the simplified Allosteric EC50 shift effect equation (available in Prism5, v. 5.02) derived from the ternary complex interaction model.

[6] = Odor detection threshold (ODT) forced-choice triangle test with background odor; assay type: in vivo, human
Description: Sensitivity of human individuals to MUSCENONE® was evaluated by performing an odor detection threshold (ODT) test. The ODT test consisted of identifying the concentration for which 50% of the panelists are able to determine which of three containers contains the target compound Muscenone® in a forced-choice triangle tests. Two tests were performed to calculate the ODT in mixtures containing Muscenone® plus a perceivable background odor of chemically similar molecules a) the enhancer tridecylenic aldehyde and b) the non-enhancing volatile compound, nonanal.
27 panelists were given a series of triangle tests with increasing concentration of MUSCENONE® in the presence of nonanal at a concentration of 0.1%. Within each triangle test, the three samples contained nonanal at 0.1% and one sample also contained MUSCENONE®. In each triangle test, the panelists were asked to identify the one sample that was different from the other two samples. The ODT was calculated by fitting a non-linear regression model onto the data and calculating the MUSCENONE® concentration at which the proportion of correct responses was equal to ⅔ (the midpoint between chance rate ⅓ and all correct answers 1). […]

[7] = tested on: OR5AN1 allele 4; assay: Cell based assay of hypofunctional OR5AN1 allele 4 with and without enhancer; set-up: species or system human
[8] = tested on: OR5AN1 allele 3; assay: Cell based assay of hypofunctional OR5AN1 allele 3 with and without enhancer; set-up: species or system human

Compound: CC/C=C\CC/C=C/CO [(E)-2-(Z)-6-nonadien-1-ol]
Inhibition of the activity of the OR5AN1 olfactory receptor [1]: inhibit the activity

Compound: O=CCCc1ccccc1 [3-phenylpropanal]
Inhibition of the activity of the OR5AN1 olfactory receptor [1]: inhibit the activity

Compound: CC(=O)c1ccccc1N [Compound 20]
Hit Type [2]: Enhancement

Compound: CC12C3CC(CC31)[C@]2(C)C/C=C/C=O (single isomer, unassigned; (+))
Inhibition of the activity of the OR5AN1 olfactory receptor [1]: inhibit the activity

Compound: CC(=O)c1c(C)c([N+](=O)[O-])c(C(C)(C)C)c([N+](=O)[O-])c1C [Musk ketone]
Activation of the OR5AN1 olfactory receptor ([4]; FIG. 1a): specifically activated | Span (HTRF ratio) ([4]; efficacy, maximum span): 4312 HTRF ratio

Compound: Cc1c([N+](=O)[O-])c(C)c([N+](=O)[O-])c(C(C)(C)C)c1[N+](=O)[O-] [Musk xylol]
Activation of the OR5AN1 olfactory receptor [4]: specifically activated | Span (HTRF ratio) [4]: 4217 HTRF ratio

Compound: CCC/C=C/C=O [(E)-2-hexenal]
Inhibition of the activity of the OR5AN1 olfactory receptor [1]: inhibit the activity

Compound: SCc1ccco1 [furfuryl mercaptan]
Inhibition of the activity of the OR5AN1 olfactory receptor [1]: inhibit the activity

Compound: CC1=CCCC2(CCCCC2)C1/C=C/C=O (racemic) [(+−)-(2E)-3-(2-methylspiro [5.5]undec-2-en-1-yl) acrylaldehyde]
Inhibition of the activity of the OR5AN1 olfactory receptor [1]: inhibit the activity

Compound: CCC/C=C/C=O [Compound 12]
Hit Type [2]: Enhancement

Compound: CCCCCC/C=C/C=O [nonylenic aldehyde]
Allosteric modulation properties [5]: allosteric modulation properties similar to TDA

Compound: CCCCCCC/C=C/C=O [Compound 11]
Hit Type [2]: Enhancement

Compound: CCCCCCCC=CC=O [Compound 2-decenal, 2-decenal]
Allosteric modulation properties [5]: allosteric modulation properties similar to TDA

Compound: CC(C)c1cccc(C(C)CC=O)c1 (stereo not drawn) [3-(3-propan-2-ylphenyl)butanal]
Inhibition of the activity of the OR5AN1 olfactory receptor [1]: inhibit the activity

Compound: CCCCCCCCC/C=C/C(=O)O [(E)-2-dodecenoic acid]
Inhibition of the activity of the OR5AN1 olfactory receptor [1]: inhibit the activity

Compound: CCCCCCCCCCC/C=C/C=O [Compound 7, (E)-2-tetradecenal]
Hit Type [2]: Agonist

Continued, in another order:

Hit Type [2]: Enhancement
Compound: COC(=O)c1ccccc1OC [Compound 16]

Inhibition of the activity of the OR5AN1 olfactory receptor [1]: inhibit the activity
Compound: CCCCC/C=C/CCC=O [(E)-dec-4-enal]

Inhibition of the activity of the OR5AN1 olfactory receptor [1]: inhibit the activity
Compound: CC1C2CC(CC2C2CCCC(O)C2)C1(C)C (stereo not drawn) [sandenol]

OR5AN1 Musk response enhancement [3]: absence of enhancement
Compound: C=CCCCCCCCCC(=O)O [undecenoic acid]

Inhibition of the activity of the OR5AN1 olfactory receptor [1]: inhibit the activity
Compound: CCCCCCCC=O [octanal]

Inhibition of the activity of the OR5AN1 olfactory receptor [1]: inhibit the activity
Compound: CCCCCCCC/C=C/C(=O)O [(E)-2-undecenoic acid]

Hit Type [2]: agonists
Compound: (2E)-7-methyl-2,6-octadienal [Compound 3]

Activation of the OR5AN1 olfactory receptor ([4]; FIG. 1a): specifically activated | Span (HTRF ratio) ([4]; efficacy, maximum span): 2979 HTRF ratio
Compound: C[C@@H]1CCCCCCCCCCCCC(=O)C1 [Muscone]

Inhibition of the activity of the OR5AN1 olfactory receptor [1]: inhibit the activity
Compound: CC/C(=C\CC1CC=C(C)C1(C)C)CO (stereo not drawn) [bacdanol]

Inhibition of the activity of the OR5AN1 olfactory receptor [1]: inhibit the activity
Compound: C/C(C=O)=C\CCc1ccc(C(C)(C)C)cc1 [trans-5-(4-tert-butylphenyl)-2-methylpent-2-enal]

Inhibition of the activity of the OR5AN1 olfactory receptor [1]: inhibit the activity
Compound: CC/C=C\CCCCCO [(Z)-6-nonen-1-ol]

Inhibition of the activity of the OR5AN1 olfactory receptor [1]: inhibit the activity
Compound: CCCCCOC(=O)CCCC [pentyl valerate]

Hit Type [2]: Agonist
Compound: CC(C)=CCCC(C)C/C=C/C=O (racemic) [Compound 5, (+−)-(2E)-5,9-dimethyl-2,8-decadienal]

Inhibition of the activity of the OR5AN1 olfactory receptor [1]: inhibit the activity
Compound: CCCCCCCCCC/C=C/CO [(E)-2-tridecenol]

Activation of the OR5AN1 olfactory receptor ([4]; FIG. 1a): specifically activated | Span (HTRF ratio) ([4]; efficacy, maximum span): 3629 HTRF ratio | EC50 ([7]; allele 4, absence of enhancer): 10.1 µM | EC50 ([7]; allele 4, in the presence of 250 μM tridecylenic aldehyde): 1.6 µM | EC50 ([8]; allele 3, absence of enhancer): 9 µM | EC50 ([8]; allele 3, in the presence of 250 μM tridecylenic aldehyde): 1.5 µM
Compound: CC1CC=CCCCCCCCCCC(=O)C1 (stereo not drawn) [MUSCENONE®]
ODT (odor detection threshold) ([6]; in the presence of nonanal at 0.1%, 27 panelists): 0.93% | ODT (odor detection threshold) ([6]; in the presence of tridecylenic aldehyde at 0.1%, 28 panelists): 0.09% | Activity (span) ([7]; allele 4, absence of enhancer): 2328 relative fluorescent HTRF units | Activity (span) ([7]; allele 4, in the presence of tridecylenic aldehyde): 5026 relative fluorescent HTRF units | Activity (span) ([8]; allele 3, absence of enhancer): 2311 relative fluorescent HTRF units | Activity (span) ([8]; allele 3, in the presence of tridecylenic aldehyde): 4663 relative fluorescent HTRF units

Inhibition of the activity of the OR5AN1 olfactory receptor [1]: inhibit the activity
Compound: CCCCCCCCCC/C=C/C(=O)O [(E)-2-tridecenoic acid]

Hit Type [2]: Agonist
Compound: (2E)-7,8-dimethyl-2,7-nonadienal [Compound 1]

Hit Type [2]: agonists
Compound: Trans-2,6,7-dimethyl-2,6-octadienal [Compound 9]

OR5AN1 Musk response enhancement [3]: non-enhancing
Compound: CCCCCCCCC=O [nonanal, reference compound]

Hit Type [2]: Enhancement
Compound: CCCCCC/C=C/C=O [Compound 6]

Inhibition of the activity of the OR5AN1 olfactory receptor [1]: inhibit the activity
Compound: COc1ccccc1/C=C/C=O [(E)-3-(2-methoxyphenyl)prop-2-enal]
